Data taken from patent US12421242B2, “Substituted tetrahydropyrrolo-pyridinone compounds and their use in treating medical conditions” (Karuna Therapeutics, Inc., priority 2022, dated 2025).

Experiments:
hM4 receptors = biological target: T1, hM4 receptors (Homo sapiens, UniProt P08173); test: Human M4 PAM pERK assay; type: cell-based; conditions: PAM mode
T1 construct: expressed in transfected cells; host or cells: CHO cells
T1 sequence (P08173 1-479): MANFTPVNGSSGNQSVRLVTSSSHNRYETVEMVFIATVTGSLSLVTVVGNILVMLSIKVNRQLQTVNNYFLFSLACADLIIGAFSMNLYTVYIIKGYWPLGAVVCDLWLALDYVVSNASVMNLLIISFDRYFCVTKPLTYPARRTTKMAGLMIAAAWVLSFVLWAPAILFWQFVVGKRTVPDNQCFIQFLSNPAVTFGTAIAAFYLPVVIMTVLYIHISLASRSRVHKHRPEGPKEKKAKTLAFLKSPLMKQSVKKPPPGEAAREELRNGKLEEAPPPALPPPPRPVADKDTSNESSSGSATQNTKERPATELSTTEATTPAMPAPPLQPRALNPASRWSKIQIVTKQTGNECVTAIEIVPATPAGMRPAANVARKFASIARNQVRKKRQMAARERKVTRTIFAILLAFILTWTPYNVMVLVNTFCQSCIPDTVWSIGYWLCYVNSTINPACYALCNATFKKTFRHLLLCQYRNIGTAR
How it was run: (§1)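 CHO cells expressing hM4 or rM4 were serum-starved 4 h, then given compound (ten-point curve, 10 μM top, duplicate) with an EC20 of acetylcholine (10 nM final) for 5 min at 37° C. Phospho-ERK in lysates was detected by TR-FRET.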

rM4 receptors = biological target: T2, rM4 receptors (Rattus norvegicus, UniProt P08485); test: Rat M4 PAM pERK assay; type: cell-based; conditions: PAM mode
T2 construct: expressed in transfected cells; host or cells: CHO cells
T2 sequence (P08485 1-478): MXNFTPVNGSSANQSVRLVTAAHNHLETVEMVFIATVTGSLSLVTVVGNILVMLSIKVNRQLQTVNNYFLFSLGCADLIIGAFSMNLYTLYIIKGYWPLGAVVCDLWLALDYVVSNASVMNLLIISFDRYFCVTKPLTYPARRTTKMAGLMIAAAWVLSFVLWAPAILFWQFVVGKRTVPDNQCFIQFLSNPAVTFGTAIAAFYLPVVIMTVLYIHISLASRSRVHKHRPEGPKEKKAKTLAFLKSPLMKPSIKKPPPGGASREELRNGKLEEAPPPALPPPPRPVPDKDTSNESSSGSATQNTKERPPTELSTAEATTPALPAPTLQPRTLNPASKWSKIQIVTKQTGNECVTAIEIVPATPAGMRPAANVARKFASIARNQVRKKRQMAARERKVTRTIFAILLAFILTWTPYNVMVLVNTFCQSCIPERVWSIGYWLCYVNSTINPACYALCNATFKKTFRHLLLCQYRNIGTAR
How it was run: as §1

human M4 receptor = biological target: T3, human M4 receptor (Homo sapiens, UniProt P08173); test: M4 GTPγS PAM assay; type: biochemical; conditions: CHO-K1 membranes expressing human M4, with EC20 acetylcholine (40 nM)
T3 construct: expressed in transfected cells
T3 sequence (P08173 1-479): T1 sequence (P08173 1-479)
Experimental: The M4 GTPγS PAM method was used. Membranes were prepared for GTPgS binding assays from CHO-K1 cells stably expressing human M4 receptor. Briefly, cells were grown in 5-layer cell culture flasks. Cells were washed with 50 mL of PBS and then dissociated with 0.05% trypsin. Dissociated cells were then collected by centrifugation at 650×g for 8 minutes at 4° C. Pellets were washed again in PBS by centrifugation and resuspended in 30 mL of 20 mM HEPES, 10 mM EDTA, pH 7.4. After sitting on ice for 30 min, membranes were collected by centrifugation at 50000×g for 15′ at 4° C., resuspended in 30 mL of 20 mM HEPES, 0.1 mM EDTA, pH 7.4 and collected again by centrifugation. Pellets were then washed twice by centrifugation in 30 mL of 20 mM HEPES, pH 7.4, and stored at −80° C. until the day of the assay. On the day of the assay, pellets were thawed on ice and resuspended in 1 mL of 20 mM HEPES, pH 7.4, 10 mM MgCl2, 100 mM NaCl using dounce homogenization. Membrane protein concentration is determined by BCA protein assay (Promega, Madison, WI) according to Promega guidelines.
On the day of the assay, serial dilutions of test PAM compounds were brought up in assay buffer (20 mM HEPES, 10 mM MgCl2, 100 mM NaCl) at 4× final assay concentration. […] of membrane homogenates (containing […] of membrane protein) were prepared in assay buffer supplemented with GDP at 4× final assay concentration (final assay concentration of GDP is 5 uM for M2 and 0.1 uM for M4) and dispensed into 96 well polypropylene, U-bottom Greiner plates. […] of vehicle or test PAM compound at 4× of final assay concentration diluted in the assay buffer were added to membrane and plates are incubated for 10-15 minutes at room temperature with gentle shaking. Then, […] of EC20 acetylcholine in assay buffer at 4× final assay concentration was added to assay plates (EC20 final assay concentrations was 40 nM for human M4).
Plates were then incubated, with shaking, for an additional 10-15 minutes. 25 mL of 0.4 nM ^35S-GTP (Perkin Elmer, Waltham, MA) in assay buffer was added to assay mixtures. The binding reaction is left on the shaker for 1 hour at room temperature. Membranes in assay reactions were then transferred to GF/C filter plates (Unifilter, Perkin Elmer) and washed three times using a FilterMate Harvester (Perkin Elmer) with cold assay buffer containing no GDP. Filter plates were then dried at 40° C. overnight followed by the addition of […] of Beta Plate Scintillation liquid. Plates are top and bottom sealed before being read on TopCount scintillation counter (Perkin Elmer, Waltham, MA).

Structure (SMILES)	EC50 (hM4 receptors)	EC50 (rM4 receptors)	EC50 (human M4 receptor)
COC(C)(C)Cn1cc(C(=O)N2Cc3c(C)c(Cl)c(=O)n(C)c3C2)cn1 [Compound I-62]	> 2000 nM	> 2000 nM	500 to 2000 nM
COCCn1cc(C(=O)N2Cc3c(C)c(Cl)c(=O)n(C)c3C2)cn1 [Compound I-63]	> 2000 nM	> 2000 nM	> 2000 nM
Cc1c2c(n(C)c(=O)c1Cl)CN(C(=O)c1cnc(CC3CC3(F)F)s1)C2 (stereo not drawn) [Compound I-66]	< 100 nM	> 2000 nM	500 to 2000 nM
Cc1c2c(n(C)c(=O)c1Cl)CN(C(=O)c1cnc(C(F)(F)C3CC3)s1)C2 [Compound I-67, 3-Chloro-6-(2-(cyclopropyldifluoromethyl)thiazole-5-carbonyl)-1,4-dimethyl-1,5,6,7-tetrahydro-2H-pyrrolo[3,4-b]pyridin-2-one]	< 100 nM	500 to 2000 nM	100 to 500 nM
Cc1c2c(n(CC(F)(F)F)c(=O)c1Cl)CN(C(=O)c1cnc(CC3CC3)s1)C2 [Compound I-71]	500 to 2000 nM	> 2000 nM	> 2000 nM
Cc1c2c(n(CC(F)(F)F)c(=O)c1Cl)CN(C(=O)c1ccc3nc(C4CC4)sc3c1)C2 [Compound I-72]	100 to 500 nM	100 to 500 nM	100 to 500 nM
COc1c2c(n(C)c(=O)c1Cl)CN(C(=O)c1cnn(C(F)(F)F)c1)C2C (stereo not drawn) [Compound I-73, 3-Chloro-4-methoxy-1,5-dimethyl-6-(1-(trifluoromethyl)-1H-pyrazole-4-carbonyl)-1,5,6,7-tetrahydro-2H-pyrrolo[3,4-b]pyridin-2-one]	100 to 500 nM	500 to 2000 nM	100 to 500 nM
COc1cc(=O)n(C)c2c1C(C)N(C(=O)c1cnn(C(F)(F)F)c1)C2 (stereo not drawn) [Compound I-79, 4-Methoxy-1,5-dimethyl-6-(1-(trifluoromethyl)-1H-pyrazole-4-carbonyl)-1,5,6,7-tetrahydro-2H-pyrrolo[3,4-b]pyridin-2-one]	500 to 2000 nM	> 2000 nM	500 to 2000 nM
Cc1c(OC(F)F)c2c(n(C)c1=O)CN(C(=O)c1cnn(C(F)(F)F)c1)C2 [Compound I-89, 4-(Difluoromethoxy)-1,3-dimethyl-6-(1-(trifluoromethyl)-1H-pyrazole-4-carbonyl)-1,5,6,7-tetrahydro-2H-pyrrolo[3,4-b]pyridin-2-one]	100 to 500 nM	> 2000 nM	500 to 2000 nM

The next lines start with the values.

EC50 (hM4 receptors)	EC50 (rM4 receptors)	EC50 (human M4 receptor)	Structure (SMILES)
100 to 500 nM	> 2000 nM	500 to 2000 nM	CSc1c2c(n(C)c(=O)c1C)CN(C(=O)c1cnn(C(F)(F)F)c1)C2 [Compound I-90, 1,3-Dimethyl-4-(methylthio)-6-(1-(trifluoromethyl)-1H-pyrazole-4-carbonyl)-1,5,6,7-tetrahydro-2H-pyrrolo[3,4-b]pyridin-2-one]
> 2000 nM	> 2000 nM	> 2000 nM	Cc1cc(=O)n(C)c2c1[C@H](C)N(C(=O)c1ccc3nc(C4CC4)sc3c1)C2 [Compound I-102]
100 to 500 nM	500 to 2000 nM	> 2000 nM	Cc1cc(=O)n(C)c2c1[C@@H](C)N(C(=O)c1ccc3nc(C4CC4)sc3c1)C2 [Compound I-103]
500 to 2000 nM	> 2000 nM	> 2000 nM	Cc1c2c(n(C)c(=O)c1Cl)C(C)N(C(=O)c1cnn(C(F)(F)F)c1)C2 (stereo not drawn) [Compound I-109]
< 100 nM	> 2000 nM	100 to 500 nM	Cc1c2c(n(C)c(=O)c1C)CN(C(=O)c1cnn(C(F)(F)F)c1)C2 [Compound I-112]
< 100 nM	> 2000 nM	500 to 2000 nM	Cc1c2c(n(C)c(=O)c1F)CN(C(=O)c1cnn(C(F)(F)F)c1)C2 [Compound I-113, 3-Fluoro-1,4-dimethyl-6-(1-(trifluoromethyl)-1H-pyrazole-4-carbonyl)-1,5,6,7-tetrahydro-2H-pyrrolo[3,4-b]pyridin-2-one]
